# Results taken from patent publication US20260007680A1, “Compounds and Their Use as PDE4 Activators” (Mironid Limited, priority 2022, published 2026).
# Test system: m-IMCD3 cells
# Experiment: Inhibition of PGE2-stimulated in vitro cyst formation in 3D culture of m-IMCD3 cells (Experiment 4)
# Assay type: cell-based, mouse
# Details: Mus musculus, mIMCD3, 144 h, 10 μM test compound, mean cyst area compared to 100% for (DMSO + PGE2) and 0% for DMSO control, read-out: % Cyst area* after incubation with 10 μM test compound
# Experimental: HEK 293 and MDCK cells (Public Health England, Cell Culture Collections) were maintained in Dulbecco's Modified Eagle's Medium (DMEM) supplemented with 10% (v/v) fetal bovine serum (FBS) (Seralab), 2 mM L-glutamine and 100 U/ml penicillin streptomycin cocktail (ThermoFisher); termed complete media. Clonal HEK 293 cell lines were maintained in complete media supplemented with 0.6 mg/mL G418 (Enzo Life Sciences). Mouse inner medullary collecting duct (m-IMCD3) cells [American Type Culture Collection (ATCC)] were maintained in media consisting of DMEM/Hams F-12 50/50 Mix (DMEM F12; Corning) supplemented with penicillin streptomycin cocktail (100 U/ml) and FBS (10% v/v) (DMEM F12-10% FBS).
# The mouse Inner Medullary Collecting Duct cell line (m-IMCD3) spontaneously forms cystic spheroids in 3D culture with a Type 1 collagen/Matrigel extracellular matrix. This process can be stimulated with agents which raise intracellular cAMP and is used as an in vitro model for the formation of cystic structures in the kidneys of patients with ADPKD.
# Rat Collagen I (Fisher Scientific) is prepared on ice by neutralising with 1 M NaOH and diluting with a 2×volume of DMEM/F12+10% FBS. This is mixed 1:1.1 with ice cold Matrigel (Corning) for coating plates (coating mix), and 1:0.93 with Matrigel for cell plating (plating mix).
# The assay is conducted in the wells of a 96-well plate culture dish using a total volume of 130 μL of collagen/Matrigel/DMEM F12-10% FBS suspension in growth media for each matrix plug per individual well. Initially, 30 μL of collagen/Matrigel/DMEM F12-10% FBS (coating mix) is added into the well of a 96 well plate and the collagen is set to a gel by incubating at 37° C. for at least 15 minutes. A second layer of 100 μL collagen/Matrigel suspension (plating mix) containing m-IMCD3 cells (2.75×10^6 m-IMCD3 cells per 96-well plate) is layered over the coating mix and the collagen/Matrigel/cell mix again set to a gel by incubating at 37° C. Cell cultures are maintained at 37° C. in an atmosphere of 5% CO2, 95% air.
# Between 18 and 24 h after plating, test compound(s) as DMSO stock solutions [0.1% (v/v) final DMSO concentration] and PGE2 (100 nM final concentration) in DMEM F12-10% FBS are added in quadruplicate wells per condition. Media, together with the test compound and PGE2 are replenished after 2 or 3 days. After 6 days of culture z stack images of the wells are captured using the Nikon Eclipse Ti2-E microscope. Nikon General Analysis software is used to measure the following parameters in each well: the mean cyst area, the number of cysts, and the total cyst area.
# PDE4 long form activators inhibited in vitro cyst formation in m-IMCD3 cells. Data are shown in FIG. 2 and Table 4 as mean cyst area (%), compared to 100% for (DMSO+PGE2) and 0% for DMSO control.
row,SMILES,activity at 10 µM [%]
1,"Cc1cncc(-c2nc3cc(C(=O)N[C@H]4CCOc5ccccc54)ccc3[nH]2)c1 [Example 4, (S)—N-(chroman-4-yl)-2-(5-methylpyridin-3-yl)-1H-benzo[d]imidazole-5-carboxamide]",18
2,"Cc1cncc(-c2nc3ccc(C(=O)N[C@H]4CCOc5ccccc54)cc3n2C)c1 [Example 28, (S)—N-(chroman-4-yl)-1-methyl-2-(5-methylpyridin-3-yl)-1H-benzo[d]imidazole-6-carboxamide]",8
3,"Cc1ccc(-c2nc3cc(C(=O)N[C@H]4CCOc5ccccc54)ccc3[nH]2)cn1 [Example 2, (S)—N-(chroman-4-yl)-2-(6-methylpyridin-3-yl)-1H-benzo[d]imidazole-5-carboxamide]",17
4,"Cc1ccncc1-c1nc2cc(C(=O)N[C@H]3CCOc4ccccc43)ccn2n1 [Example 53, (S)—N-(chroman-4-yl)-2-(4-methylpyridin-3-yl)-[1,2,4]triazolo[1,5-a]pyridine-7-carboxamide]",20
